Literature values in US4650854A, “Amide analogs of calcitonin” (USV Pharmaceutical Corporation, priority 1985, dated 1987).
Where no end group is shown, it is not given here.

Settings: Monikawa et al., Experientia 32(9), 1104-1106 (1976)

Substance | hypocalcemic potency
(1,7-α-L-aminosuberic acid)eel calcitonin | about 3400 Iu/mg
eel calcitonin (CSNLSTCVLGKLSQELHKLQTYPRTDVGAGTP; ends and bridges not checked; cysteine pairing not given here; UniProt P01262 1-32, looked up) [synthetic eel calcitonin, synthetic eel calcitonin, natural 32 amino acid calcitonin peptide] | around 4300 Iu/mg
